According to patent US11716994B2, “Combinations of Yersinia entomophaga and pesticides or other substances” (priority 2017, dated 2023):
Read-outs that look alike come from different tables or passages of the source.

Legend:
Yersinia entomophaga = assay: CFU counts after exposure of Yersinia entomophaga to insecticides; type: cell-based; details: 1 hour contact
In short: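 Insecticides at 1× (label-rate based) and 5× or 10× amounts were dried from ethyl acetate as a coat inside tubes. Diluted LB-grown Y. entomophaga culture (1 ml) was added and held 1 hour on the bench. Then 100 μl was plated in triplicate on LB and colonies were counted after 48 hours at 25° C.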

diamondback moth = assay: whole plant or invertebrate; details: flubendiamide 0.059 mg/L; for mortality at 0.059 µg/mL: Plutella xylostella, foliar, Abbott's corrected
Text: (§1) These were set to dry for 1 hr.
as §1
These were set to dry for 1 hr. Cabbage disks were then dipped in either 1% Luria broth (LB) media solution (controls and thiacloprid alone treatments) or in 1% cell free filtrate from a culture Y. entomophaga isolate O24G3R (Y. entomophaga alone or in combination with thiacloprid treatments).

fall armyworm [1] = assay: Leaf disk mortality assay, Y. entomophaga cells with chemical insecticides; details: for LT50 (95% confidence intervals) in days: 4th instar; for mortality at 0.59 µg/mL: Spodoptera frugiperda, foliar; for % Mort. Chem.: fall armyworm, Flubendiamide 0.59 mg/L
black cutworm [2] = assay: as above; details: for % Mort. Chem.: black cutworm
black cutworm [3] = details: flubendiamide 0.59 mg/L
Protocol: To produce cell free filtrates, cultures of Yersinia entomophaga grown in LB medium were centrifuged at 11,448 (g) for 10 minutes. The supernatant was decanted from the centrifuged pellet and filtered through a 0.22 μm filter. Assays were performed to determine concentrations of Yen-TC (toxin complex) using ELISA, and chitinase by measuring chitinase activity on specific substrates. […] This was done to estimate relative potency of the cell free filtrates. Insects were first pre-screened with a range of dilutions of cell free filtrates to select a concentration that provided moderate activity. […] Based on these initial screens, undiluted cell free filtrate was used for cabbage looper, fall armyworm, black cutworm, and Colorado potato beetle. […] In each of the Examples below, this is expressed as 1%.
Cabbage leaf disks were dipped in either acetone (controls and Y. entomophaga alone treatments) or in indoxacarb (Sigma 33969) at 0.53 mg/L in acetone. These were set to dry for 1 hr. […] After the cabbage disks had dried for 1 hr, a single 2nd instar black cutworm was added to each individual cabbage disk. A total of 20 insects were evaluate for each treatment. Insects were observed daily and scored as live or dead.
Cabbage leaf disks were dipped in either acetone (controls and Y. entomophaga alone treatments) or in flubendiamide (Sigma 32801) at 0.59 mg/L in acetone. These were set to dry for 1 hr. […] After the cabbage disks had dried for 1 hr, a single 2nd instar black cutworm was added to each individual cabbage disk. A total of 20 insects were evaluate for each treatment. Insects were observed daily and scored as live or dead.

fall armyworm [4] = assay: Cabbage leaf disk screening of chemical insecticide rates (flubendiamide alone), mortality; type: in vivo; details: 3rd instar
Text: Chemical insecticides were first screened against insects at a range of rates/concentrations to determine which concentrations would provide a moderate level of activity against the insects. If the chemical rates are too high, it is difficult to observe additional effects provided by the addition of either live Y. entomophaga cells or cell free filtrates of Y. entomophaga cultures.
One example is provided for flubendiamide with fall armyworm. An initial rate was selected that would fall within an expected concentration of active ingredient per volume of water, as indicated on the label of insecticide products containing that active ingredient. For flubendiamide, a concentration of 58.5 mg/L was determined based on these criteria. To create this solution, first a 10× concentration solution was made by dissolving 58.5 mg in 100 mL of acetone. Then, 1:10 dilutions of this solution were made into acetone, resulting in concentrations of the compound of 58.5, 5.85, and 0.585 mg/L. Cabbage leaf disks were dipped in either acetone (controls) or concentrations of flubendiamide at 58.5, 5.85, or 0.585 mg/L in acetone. These were set to dry for 1 hr. […] A total of 10 insects were evaluated for each treatment. Insects were observed daily and the number of dead insects was visually determined (% Mortality).

[5] = 3rd instar, flubendiamide 0.20 mg/L, isolate O23ZMJ 1×10^4 cfu/mL
[6] = 3rd instar, flubendiamide 0.20 mg/L, isolate O348UX 1×10^4 cfu/mL
[7] = 3rd instar, flubendiamide 0.59 mg/L, isolate O43NEW 1×10^4 cfu/mL

Cc1cc(C(F)(C(F)(F)F)C(F)(F)F)ccc1NC(=O)c1cccc(I)c1C(=O)NC(C)(C)CS(C)(=O)=O [Flubendiamide]
Average CFU (Yersinia entomophaga; 0.5 mg insecticide): 328 CFU | Average CFU (Yersinia entomophaga; 5.0 mg insecticide): 0 CFU | LT50 (95% confidence intervals) (diamondback moth; 2nd instar diamondback moth, 1% O43NEW filtrate, Probit analysis): 6.52 days | LT50 Chem. (diamondback moth; Diamondback moth): 6.52 days | % Mort. Chem. (diamondback moth; Diamondback moth, 6 DAT): 32% | mortality at 0.059 µg/mL (diamondback moth; 96 h, read-out: % Mortality (4DAT), diamondback moth, 1% O43NEW filtrate, 4 DAT): 16% | mortality at 0.059 µg/mL (diamondback moth; 120 h, read-out: % Mortality (5DAT), diamondback moth, 1% O43NEW filtrate, 5 DAT): 32% | mortality at 0.059 µg/mL (diamondback moth; 144 h, read-out: % Mortality (6DAT), diamondback moth, 1% O43NEW filtrate, 6 DAT): 32% | mortality at 0.059 µg/mL (diamondback moth; 168 h, read-out: % Mortality (7DAT), diamondback moth, 1% O43NEW filtrate, 7 DAT): 58% | mortality at 0.059 µg/mL (diamondback moth; 264 h, read-out: % Mortality (11DAT), diamondback moth, 1% O43NEW filtrate, 11 DAT): 67% | LT50 (95% confidence intervals) (fall armyworm [1]; 3rd instar, flubendiamide 0.59 mg/L, isolate O43NEW 1×10^6 cfu/mL): 18.28 days | LT50 (95% confidence intervals) in days (fall armyworm [1]; flubendiamide 0.59 mg/L, isolate O23ZMJ 1×10^5 cfu/mL): 7.46 (6.86-8.10) days | LT50 (95% confidence intervals) in days (fall armyworm [1]; flubendiamide 0.59 mg/L, isolate O24G3R 1×10^5 cfu/mL): 7.46 (6.86-8.10) days | LT50 (95% confidence intervals) in days (fall armyworm [1]; flubendiamide 0.59 mg/L, isolate O348UX 1×10^5 cfu/mL): 7.46 (6.86-8.10) days | mortality at 0.59 µg/mL (fall armyworm [1]; 96 h, read-out: % Mortality (4DAT), 4th instar, flubendiamide 0.59 mg/L, isolate O23ZMJ 1×10^5 cfu/mL): 0% | mortality at 0.59 µg/mL (fall armyworm [1]; 96 h, read-out: % Mortality (4DAT), 4th instar, flubendiamide 0.59 mg/L, isolate O24G3R 1×10^5 cfu/mL): 0% | mortality at 0.59 µg/mL (fall armyworm [1]; 96 h, read-out: % Mortality (4DAT), 4th instar, flubendiamide 0.59 mg/L, isolate O348UX 1×10^5 cfu/mL): 0% | mortality at 0.59 µg/mL (fall armyworm [1]; 120 h, read-out: % Mortality (5DAT), 4th instar, flubendiamide 0.59 mg/L, isolate O348UX 1×10^5 cfu/mL): 30% | mortality at 0.59 µg/mL (fall armyworm [1]; 144 h, read-out: % Mortality (6DAT), 3rd instar, flubendiamide 0.59 mg/L, isolate O43NEW 1×10^6 cfu/mL): 0% | mortality at 0.59 µg/mL (fall armyworm [1]; 144 h, read-out: % Mortality (6DAT), 4th instar, flubendiamide 0.59 mg/L, isolate O24G3R 1×10^5 cfu/mL): 26% | mortality at 0.59 µg/mL (fall armyworm [1]; 144 h, read-out: % Mortality (6DAT), 4th instar, flubendiamide 0.59 mg/L, isolate O348UX 1×10^5 cfu/mL): 26% | mortality at 0.59 µg/mL (fall armyworm [1]; 168 h, read-out: % Mortality (7DAT), 3rd instar, flubendiamide 0.59 mg/L, isolate O43NEW 1×10^6 cfu/mL): 0% | mortality at 0.59 µg/mL (fall armyworm [1]; 264 h, read-out: % Mortality (11DAT), 3rd instar, flubendiamide 0.59 mg/L, isolate O43NEW 1×10^6 cfu/mL): 18% | mortality at 0.59 µg/mL (fall armyworm [1]; […], read-out: % Mortality (8DAT), 3rd instar, flubendiamide 0.59 mg/L, isolate O43NEW 1×10^6 cfu/mL): 5% | % Mort. Chem. (fall armyworm [1]; 4 DAT): 26% | % Mort. Chem. (fall armyworm [1]; 6 DAT (row with O23ZMJ)): 0% | % Mort. Chem. (fall armyworm [1]; 6 DAT (row with O348UX)): 26% | % Mort. Chem. (fall armyworm [1]; 7 DAT): 0% | % Mortality (5DAT) (black cutworm [2]; 3rd instar black cutworm, flubendiamide 0.20 mg/L, Y. entomophaga isolate O24G3R 1 × 10^4 CFU/mL, 5 DAT, Abbott's corrected): 31% | % Mortality (6DAT) (black cutworm [2]; 3rd instar black cutworm, flubendiamide 0.20 mg/L, Y. entomophaga isolate O24G3R 1 × 10^4 CFU/mL, 6 DAT, Abbott's corrected): 44% | % Mortality (7DAT) (black cutworm [2]; 3rd instar black cutworm, flubendiamide 0.20 mg/L, Y. entomophaga isolate O24G3R 1 × 10^4 CFU/mL, 7 DAT, Abbott's corrected): 69% | LT50 (95% confidence intervals) in days (black cutworm [2]; 3rd instar black cutworm, flubendiamide 0.20 mg/L, Y. entomophaga isolate O24G3R 1 × 10^4 CFU/mL, Probit analysis): 4.83 (4.34-5.37) days | % Mortality (5DAT) (black cutworm [2]; [5]): 31% | % Mortality (6DAT) (black cutworm [2]; [5]): 44% | % Mortality (7DAT) (black cutworm [2]; [5]): 69% | LT50 (95% confidence intervals) in days (black cutworm [2]; [5]): 4.83 (4.34-5.37) days | % Mortality (5DAT) (black cutworm [2]; [6]): 31% | % Mortality (6DAT) (black cutworm [2]; [6]): 44% | % Mortality (7DAT) (black cutworm [2]; [6]): 69% | LT50 (95% confidence intervals) in days (black cutworm [2]; [6]): 4.83 (4.34-5.37) days | % Mortality (4DAT) (black cutworm [2]; [7]): 21% | % Mortality (5DAT) (black cutworm [2]; [7]): 22% | % Mortality (6DAT) (black cutworm [2]; [7]): 44% | LT50 (95% confidence intervals) in days (black cutworm [2]; [7]): 4.99 (4.53-5.48) days | % Mort. Chem. (black cutworm [2]; Flubendiamide 0.2 mg/L, 5 DAT (row with O23ZMJ)): 31% | % Mort. Chem. (black cutworm [2]; Flubendiamide 0.2 mg/L, 5 DAT (row with O24G3R)): 31% | % Mort. Chem. (black cutworm [2]; Flubendiamide 0.2 mg/L, 5 DAT (row with O348UX)): 31% | % Mort. Chem. (black cutworm [2]; Flubendiamide 0.59 mg/L, 6 DAT): 44% | LT50 (95% confidence intervals) (black cutworm [3]; 2nd instar black cutworm, undiluted O43NEW filtrate, Probit analysis): 7.05 days | LT50 Chem. (black cutworm [3]; Black cutworm): 7.05 days | % Mort. Chem. (black cutworm [3]; Black cutworm, 7 DAT): 42% | % Mortality (5DAT) (black cutworm [3]; black cutworm, undiluted O43NEW filtrate, 5 DAT, Abbott's corrected): 0% | % Mortality (6DAT) (black cutworm [3]; black cutworm, undiluted O43NEW filtrate, 6 DAT, Abbott's corrected): 37% | % Mortality (7DAT) (black cutworm [3]; black cutworm, undiluted O43NEW filtrate, 7 DAT, Abbott's corrected): 42% | % Mortality (8DAT) (black cutworm [3]; black cutworm, undiluted O43NEW filtrate, 8 DAT, Abbott's corrected): 53% | % Mortality (9DAT) (black cutworm [3]; black cutworm, undiluted O43NEW filtrate, 9 DAT, Abbott's corrected): 74% | % Mort (4DAT) (fall armyworm [4]; flubendiamide at 0.585 mg/L): 0% | % Mort (5DAT) (fall armyworm [4]; flubendiamide at 0.585 mg/L): 10% | % Mort (6DAT) (fall armyworm [4]; flubendiamide at 0.585 mg/L): 10% | % Mort (7DAT) (fall armyworm [4]; flubendiamide at 0.585 mg/L): 10% | % Mort (8DAT) (fall armyworm [4]; flubendiamide at 0.585 mg/L): 10% | % Mort (11DAT) (fall armyworm [4]; flubendiamide at 0.585 mg/L): 20% | % Mort (12DAT) (fall armyworm [4]; flubendiamide at 0.585 mg/L): 30% | LT50 (95% confidence intervals) (fall armyworm [4]; flubendiamide at 0.585 mg/L): 14.38 days | % Mort (4DAT) (fall armyworm [4]; flubendiamide at 5.85 mg/L): 10% | % Mort (5DAT) (fall armyworm [4]; flubendiamide at 5.85 mg/L): 30% | % Mort (6DAT) (fall armyworm [4]; flubendiamide at 5.85 mg/L): 90% | % Mort (7DAT) (fall armyworm [4]; flubendiamide at 5.85 mg/L): 100% | % Mort (8DAT) (fall armyworm [4]; flubendiamide at 5.85 mg/L): 100% | % Mort (11DAT) (fall armyworm [4]; flubendiamide at 5.85 mg/L): 100% | % Mort (12DAT) (fall armyworm [4]; flubendiamide at 5.85 mg/L): 100% | LT50 (95% confidence intervals) (fall armyworm [4]; flubendiamide at 5.85 mg/L): 4.61 days | % Mort (4DAT) (fall armyworm [4]; flubendiamide at 58.5 mg/L): 70% | % Mort (5DAT) (fall armyworm [4]; flubendiamide at 58.5 mg/L): 90% | % Mort (6DAT) (fall armyworm [4]; flubendiamide at 58.5 mg/L): 100% | % Mort (7DAT) (fall armyworm [4]; flubendiamide at 58.5 mg/L): 100% | % Mort (8DAT) (fall armyworm [4]; flubendiamide at 58.5 mg/L): 100% | % Mort (11DAT) (fall armyworm [4]; flubendiamide at 58.5 mg/L): 100% | % Mort (12DAT) (fall armyworm [4]; flubendiamide at 58.5 mg/L): 100% | LT50 (95% confidence intervals) (fall armyworm [4]; flubendiamide at 58.5 mg/L): 2.88 days
